Experimental data published in patent US9765049B2, “N-cycloalkyl-N-[(fusedphenyl)methylene]-(thio)carboxamide derivatives” (BAYER CROPSCIENCE AG, priority 2013, dated 2017).
Read-outs that look alike come from different tables or passages of the source.

Assays:
Sphaerotheca fuliginea = experiment: In vivo preventive test on Sphaerotheca fuliginea (powdery mildew on cucurbits); conditions: 500 ppm, gherkin plants, preventive spray, evaluated 15 days after inoculation
Description: (§1) Example F: In Vivo Preventive Test on Sphaerotheca fuliginea (Powdery Mildew on Cucurbits) [table] The active ingredients are made soluble and homogenized in a mixture of Dimethyl sulfoxide/Acetone/Tween®80 and then diluted in water to the desired concentration. The young plants of gherkin are treated by spraying the active ingredient prepared as described above. Control plants are treated only with an aqueous solution of Acetone/Dimethyl sulfoxide/Tween® 80. After 24 hours, the plants are contaminated by spraying the leaves with an aqueous suspension of Sphaerotheca fuliginea spores.

Septoria tritici = experiment: In vivo preventive test on Septoria tritici (wheat); conditions: 500 ppm, wheat plants, preventive spray, evaluated 24 days after inoculation
Description: as §1, with “E:” for “F:”, “Septoria tritici (Wheat)” for “Sphaerotheca fuliginea (Powdery Mildew on Cucurbits)”, “wheat” for “gherkin”, “Septoria tritici” for “Sphaerotheca fuliginea”, “spores. The contaminated wheat plants are incubated for 72 hours at 18° C. and at 100% relative humidity and then for 21 days at 20° C. and at 90% relative humidity.” for “spores.”

Pyrenophora teres = experiment: In vivo preventive test on Pyrenophora teres (net blotch on barley); conditions: 500 ppm, barley plants, preventive spray, evaluated 14 days after inoculation
Description: as §1, with “D:” for “F:”, “Pyrenophora teres (Net Blotch” for “Sphaerotheca fuliginea (Powdery Mildew”, “Barley)” for “Cucurbits)”, “barley” for “gherkin”, “Pyrenophora teres” for “Sphaerotheca fuliginea”

[1] = log P by HPLC on reversed-phase column (C 18), EEC Directive 79/831 Annex V.A8; format: physicochemical; conditions: for logP: Table 1, HPLC, 40° C., 0.1% aqueous formic acid and acetonitrile
Description: In table 1, the log P values were determined in accordance with EEC Directive 79/831 Annex V.A8 by HPLC (High Performance Liquid Chromatography) on a reversed-phase column (C 18), using the method described below: Temperature: 40° C.; Mobile phases: 0.1% aqueous formic acid and acetonitrile; linear gradient from 10% acetonitrile to 90% acetonitrile. Calibration was carried out using unbranched alkan-2-ones (comprising 3 to 16 carbon atoms) with known log P values (determination of the log P values by the retention times using linear interpolation between two successive alkanones). lambda-max-values were determined using UV-spectra from 200 nm to 400 nm and the peak values of the chromatographic signals.

Alternaria brassicae = experiment: In vivo preventive test on Alternaria brassicae (leaf spot on radish); conditions: 500 ppm, radish plants, preventive spray, evaluated 6 days after inoculation
Description: as §1, with “A:” for “F:”, “Alternaria brassicae (Leaf Spot” for “Sphaerotheca fuliginea (Powdery Mildew”, “Radish)” for “Cucurbits)”, “radish” for “gherkin”, “Alternaria brassicae” for “Sphaerotheca fuliginea”, “spores. The contaminated radish plants are incubated for 6 days at 20° C. and at 100% relative humidity.” for “spores.”

Botrytis cinerea = experiment: In vivo preventive test Botrytis cinerea (grey mould); conditions: gherkin plants
Description: as §1, with “B:” for “F:”, “Botrytis cinerea (Grey Mould)” for “on Sphaerotheca fuliginea (Powdery Mildew on Cucurbits)”, “Botrytis cinerea” for “Sphaerotheca fuliginea”, “spores. The contaminated gherkin plants are incubated for 4 to 5 days at 17° C. and at 90% relative humidity.” for “spores.”

Puccinia recondita = experiment: In vivo preventive test on Puccinia recondita (brown rust on wheat); conditions: 500 ppm, wheat plants, preventive spray, evaluated 11 days after inoculation
Description: as §1, with “C:” for “F:”, “Puccinia recondita (Brown Rust” for “Sphaerotheca fuliginea (Powdery Mildew”, “Wheat)” for “Cucurbits)”, “wheat” for “gherkin”, “Puccinia recondita” for “Sphaerotheca fuliginea”

Uromyces appendiculatus = experiment: In vivo preventive test on Uromyces appendiculatus (bean rust); conditions: bean plants
Description: as §1, with “G:” for “F:”, “Uromyces appendiculatus (Bean Rust)” for “Sphaerotheca fuliginea (Powdery Mildew on Cucurbits)”, “bean” for “gherkin”, “Uromyces appendiculatus” for “Sphaerotheca fuliginea”

[2] = system: Fusarium nivale (var. majus); experiment: Efficacy against Fusarium nivale (var. majus) (wheat), curative test; format: in vivo; conditions: for Efficacy: evaluated 5 days after inoculation
Description: Example I: Efficacy Against Fusarium nivale (Var. Majus) (Wheat) [table] To produce a suitable preparation of active compound, 1 part by weight of active compound or active compound combination is mixed with the stated amounts of solvent and emulsifier, and the concentrate is diluted with water to the desired concentration. […] After the spray coating has dried on, the plants remain in a greenhouse under translucent incubation cloches at a temperature of approximately 10° C. and a relative atmospheric humidity of approximately 100%.

Pyricularia oryzae = format: in vivo; conditions: dose 500 ppm, rice plants, preventive spray, evaluated 6 days after inoculation
[3] = Table B, 500 ppm, preventive spray, evaluated 4 to 5 days after inoculation
[4] = Table G, 500 ppm, preventive spray, evaluated 11 days after inoculation

`Cn1cc(C(=O)N(Cc2cccc3c2C2CCC3C2=C(Cl)Cl)C2CC2)c(C(F)F)n1` (stereo not drawn) [I.07] showed an Efficacy (Sphaerotheca fuliginea) of 98%, an Efficacy (Septoria tritici) of 97% and an Efficacy (Pyrenophora teres) of 97%. For the same compound, the logP [1] was 4.13 and the Efficacy (Alternaria brassicae) was 97%.

For `Cn1nc(C(F)F)c(C(=S)N(Cc2cccc3c2C2CCC3C2)C2CC2)c1F` (stereo not drawn) [I.02], the Efficacy (Botrytis cinerea; [3]) was 97%, the Efficacy (Sphaerotheca fuliginea) was 100% and the Efficacy (Septoria tritici) was 100%. The Efficacy (Puccinia recondita) was 97%, the Efficacy (Uromyces appendiculatus; [4]) was 100% and the logP [1] was 4.64. The Efficacy (Alternaria brassicae) was 79%.

`Cn1nc(C(F)F)c(C(=O)N(Cc2cccc3c2C2CCC3C2=C(Cl)Cl)C2CC2)c1F` (stereo not drawn) [I.08, N-cyclopropyl-N-([9-(dichloromethylene)-1,2,3,4-tetrahydro-1,4-methanonaphthalen-5-yl]methyl)-3-(difluoromethyl)-5-fluoro-1-methyl-1H-pyrazole-4-carboxamide] showed an Efficacy (Botrytis cinerea; [3]) of 100%, an Efficacy (Sphaerotheca fuliginea) of 100% and an Efficacy (Septoria tritici) of 100%. For the same compound, the Efficacy (Pyrenophora teres) was 97%, the Efficacy (Puccinia recondita) was 83% and the chromatographic logP [1] was 4.51. It also gave an Efficacy (Alternaria brassicae) of 100%.

In the case of `Cn1nc(C(F)F)c(C(=O)N(Cc2cccc3c2C2CCC3C2)C2CC2)c1F` (stereo not drawn) [I.01], the Efficacy (Botrytis cinerea; Table B2, dose 100 ppm) was 98%, the Efficacy (Botrytis cinerea; Table B2, dose 500 ppm) was 100/100 and the Efficacy (Botrytis cinerea; [3]) was 100%. For the same compound, the protection (Botrytis cinerea; dose of 100 ppm and 500 ppm) was “at least 98%”, the Efficacy (Sphaerotheca fuliginea) was 100% and the Efficacy (Septoria tritici) was 100%. For the same compound, the Efficacy ([2]; dose 250 ppm) was 100%, the Efficacy ([2]; dose 500 ppm) was 100% and the protection ([2]; dose of 250 ppm and 500 ppm) was “total protection”. For the same compound, the Efficacy (Pyricularia oryzae) was 75%, the Efficacy (Pyricularia oryzae; listed as 1.01) was “at least 70%” and the Efficacy (Pyrenophora teres) was 100%. For the same compound, the Efficacy (Puccinia recondita) was 98%, the Efficacy (Uromyces appendiculatus; Table G2, dose 100 ppm) was 99% and the Efficacy (Uromyces appendiculatus; Table G2, dose 100 ppm, listed as 1.01) was “at least 95%”. The logP [1] was 3.87 and the Efficacy (Alternaria brassicae) was 81%.

For `Cn1nc(C(F)F)c(C(=S)N(Cc2cccc3c2C2CCC3C2=C(Cl)Cl)C2CC2)c1F` (stereo not drawn) [I.11], the Efficacy (Botrytis cinerea; [3]) was 100%, the Efficacy (Sphaerotheca fuliginea) was 100% and the Efficacy (Septoria tritici) was 100%. For the same compound, the Efficacy (Puccinia recondita) was 88%, the Efficacy (Uromyces appendiculatus; [4]) was 84% and the logP [1] was 5.23.

Compound `Cn1nc(C(F)F)c(C(=O)N(Cc2cccc3c2C2C=CC3C2)C2CC2)c1F` (stereo not drawn) [I.04] has an Efficacy (Botrytis cinerea; [3]) of 97%, an Efficacy (Sphaerotheca fuliginea) of 100% and an Efficacy (Septoria tritici) of 98%. The Efficacy (Pyrenophora teres) was 100%, the logP [1] was 3.55 and the Efficacy (Alternaria brassicae) was 83%.
